Values joined by “and” are separate entries in the source; they are usually repeats but may differ in a detail not shown here. Equal values may be shown once. Read-outs that look alike come from different tables or passages of the source. Marks after values point to notes of the source that are not given here. Where no end group is shown, it is not given here.
Legend:
[1] = rat, in vivo; cited from earlier work
[2] = in vivo, cited from earlier work
IL-7 = experiment: Real-time PCR expression in colon; type: in vivo, rat; conditions: DSS colitis rats, compared with DSS group, RT-PCR
Description: (§1) Total RNA was isolated using RNAiso Plus kits following the manufacturers’ instructions. A 2 μL aliquot of the total RNA was used for first-strand cDNA synthesis using PrimeScript® RT-reagent Kit with gDNA Eraser. Real-time PCR was carried out with ABI plus one (Life Technologies, Carlsbad, CA, USA) using SYBR Premix Ex TaqTM. The primers used were in Table 1. RT-PCR analysis was performed with an ABI Step One Plus Real-Time PCR System (Applied Biosystems, Inc.) using SYBR® Premix Ex TaqTM. PCR reactions were performed in triplicate under the following conditions: 95 °C for 30 s; 40 cycles of 95 °C for 5 s and 60 °C for 30 s. Fluorescent data for quantification were collected at the end of each cycle. Melting curve analysis was performed at 55–95 °C to verify the single product generation at the end of the assay. Standard curves were generated based on the data obtained from the standards of the 2–2^−6 dilution series template. Standard curve analysis was performed by using Step One Software (v2.2, Applied Biosystems, Inc.). Data were normalised to GADPH using the 2^−△△Ct quantitation method.

Claudin-1 = experiment: Real-time PCR expression in colon; type: in vivo, rat; conditions: DSS colitis rats, compared with DSS group, RT-PCR
Description: as §1

IFN-γ = experiment: Real-time PCR expression in colon; type: in vivo, rat; conditions: DSS colitis rats; 25 nmol/kg i.p. daily d1-6 (M); compared with DSS group; RT-PCR
Description: as §1

ZO-1 = experiment: Real-time PCR expression in colon; type: in vivo, rat; conditions: DSS colitis rats; 100 nmol/kg i.p. daily d1-6 (H); compared with DSS group; RT-PCR, 2^-ΔΔCt vs GADPH
Description: as §1

IL-1 = experiment: Real-time PCR expression in colon; type: in vivo, rat; conditions: DSS colitis rats, compared with DSS group, RT-PCR
Description: as §1

Occludin = experiment: Real-time PCR expression in colon; type: in vivo, rat; conditions: DSS colitis rats, compared with DSS group, RT-PCR
Description: as §1

IL-6 = experiment: Real-time PCR expression in colon; type: in vivo, rat; conditions: DSS colitis rats, among the five groups, RT-PCR
Description: as §1

TNF-α = experiment: Real-time PCR expression in colon; type: in vivo, rat; conditions: DSS colitis rats, compared with DSS group, RT-PCR
Description: as §1

IL-10 = experiment: Real-time PCR expression in colon; type: in vivo, rat; conditions: DSS colitis rats, compared with DSS group, RT-PCR
Description: as §1

[3] = tested on: colon of DSS colitis rats; experiment: Colonic morphology and colonic damage score (histology); type: in vivo, rat; conditions: for Colonic damage score (CDS) of colon / Colon morphological structures: DSS colitis rats; for Colonic damage score (CDS) of colon: compared with DSS group, Fig. 1f; for colonic damage score: extent / colonic damage score: inflammation: grade 0-3; for colonic damage score: extent / colonic damage score: inflammation / colonic damage score: percent involvement / colonic damage score: crypt demage: individual rats, raw data; for colonic damage score: percent involvement: grade (1) 1-25% to (4) 76-100%; for colonic damage score: crypt demage: scale 0-4
Description: Histology was prepared as previously described. The paraffin-embedded sections were cut at 4 μm thickness and stained with haematoxylin and eosin. Duodenum villus-plus-crypt height was imaged using an Olympus DP-71 digital camera, and quantification was performed using an image processing system. Approximately 12 longitudinally oriented villi were measured from each H&E-stained section to make n = 1. All measurements were performed in a blinded manner. Colonic damage score (CDS), was evaluated in a blinded manner in tissue sections based on a grade scale ranging from 0 to 3 to measure the amount and depth of inflammation. The amount of crypt damage or regeneration was measured in a scale of 0–4, as indicated in Dieleman et al.. These changes were also quantified in terms of the percentage involvement of the disease process: (1) 1–25%, (2) 26–50%, (3) 51–75% and (4) 76–100%. Each section was separately scored for each feature by establishing the product of the grade for that feature and the percentage involvement. The sum of the products of the four scores was the CDS for each rat.

[4] = tested on: dipeptidyl peptidase-IV (DPP-IV); conditions: in DPP-IV in vitro; cited from earlier work
[5] = tested on: experimental rat model of ulcerative colitis (DSS); experiment: Growth performance of DSS colitis rats (body weight, intestinal and colonic length and weight); type: in vivo
Description: Animal studies were conducted in accordance with the guidelines of the Zhejiang Farm Animal Welfare Council of China and approved by the ethics committee of Zhejiang Academy of Agricultural Sciences. Thirty-five male Sprague–Dawley rats were allocated into five treatments: control, DSS, DSS + PEG–pGLP-2(L), DSS + PEG–pGLP-2(M) and DSS + PEG–pGLP-2(H). Each treatment was performed in seven replicates on one rat. The rats were housed in a plastic bottom, wire-lid cages, maintained on a 12 h: 12 h light–dark cycle and allowed to acclimatise to the animal facility for 3 days. Rats in control group received only water; other rats were fed with 5% (w/v) DSS through their drinking water for 6 days from the first day of experiment, followed by 2 days of water consumption. The rats from the DSS + PEG–pGLP-2(L), DSS + PEG–pGLP-2(M) and DSS + PEG–pGLP-2(H) groups were intraperitoneally administered with 12.5, 25 and 100 nmol/kg PEG–pGLP-2, respectively, in 0.3 mL of saline solution daily from day 1 to day 6 of the trial. The rats in the control and DSS groups were administered with the same volume of saline solution. During the experimental period, behaviour and body weight were monitored daily. On day 8, all rats were anesthetised and sacrificed to collect their intestinal sample.
Samples collection was prepared as previously described. The segment from the pylorus to the Trietz ligament and from the ileocecal valve to the rectum was considered the duodenum and colon, respectively; these segments were cut free from their mesentery and immediately placed on ice. The duodenum and colon were cleaned of luminal contents, weighed and measured with a balance and a ruler. The middle segments (1 cm) of duodenum and colon were fixed in 10% formalin for 48 h and embedded in paraffin using standard techniques for histology. One centimetre of the distal segment of colon was collected for RNA isolation, which was immediately placed in 1 mL of RNA locker.

[6] = in vivo; cited from earlier work
[7] = set-up: method as in PMID 19773525; conditions: patient; cited from earlier work
[8] = 12.5 nmol/kg i.p. daily d1-6 (L)
[9] = 100 nmol/kg i.p. daily d1-6 (H)
[10] = 5% DSS colitis, male SD rats, 12.5 nmol/kg i.p. daily d1-6 (L), day 8, mean ± SD
[11] = 5% DSS colitis, male SD rats, 25 nmol/kg i.p. daily d1-6 (M), day 8, mean ± SD
[12] = 5% DSS colitis, male SD rats, 100 nmol/kg i.p. daily d1-6 (H), day 8, mean ± SD
[13] = DSS colitis rats, 12.5 nmol/kg i.p. daily d1-6 (L), individual rats, raw data
[14] = DSS colitis rats, 25 nmol/kg i.p. daily d1-6 (M), individual rats, raw data
[15] = DSS colitis rats, 100 nmol/kg i.p. daily d1-6 (H), individual rats, raw data

HGDGSFSDEMNTVLDNLATRDFINWLLHTKITDSL [p[Gly^2]GLP-2, Porcine [Gly^2] GLP-2]
half-life [1]: 0.817 h

PEG(2 k)-Lys-GLP-1: PEGylated glucagon-like peptide-1 of Lee et al.
half-life increase ([2]; iv): 16 fold
half-life increase ([2]; sc): 3.2 fold

polyethylene glycosylated porcine glucagon-like peptide-2 (HGDGSFSDEMNTVLDNLATRDFINWLLHTKITDSL; also: mono-PEGylated with mPEG5k-SPA, site not given here; UniProt P01274 146-180, looked up, variant A2G) [PEG–pGLP-2]
Expression of IL-7 in colon (IL-7; [8]): significantly (p < 0.05) decreased
Expression of IL-7 in colon (IL-7; 25 nmol/kg i.p. daily d1-6 (M)): significantly (p < 0.05) decreased
Expression of IL-7 in colon (IL-7; [9]): significantly (p < 0.05) decreased
Expression of claudin-1 in colon (Claudin-1; 25 nmol/kg i.p. daily d1-6 (M)): significantly (p < 0.05) decreased
Expression of claudin-1 in colon (Claudin-1; [9]): significantly (p < 0.05) decreased
Expression of IFN-γ in colon (IFN-γ): significantly (p < 0.05) decreased
Expression of ZO-1 in colon (ZO-1): significantly (p < 0.05) increased
Expression of IL-1 in colon (IL-1; [8]): significantly (p < 0.05) decreased
Expression of IL-1 in colon (IL-1; 25 nmol/kg i.p. daily d1-6 (M)): significantly (p < 0.05) decreased
Expression of IL-1 in colon (IL-1; [9]): significantly (p < 0.05) decreased
Expression of occludin in colon (Occludin; 25 nmol/kg i.p. daily d1-6 (M)): significantly (p < 0.05) increased
Expression of occludin in colon (Occludin; [9]): significantly (p < 0.05) increased
Expression of IL-6 in colon (IL-6; [8]): No significant differences
Expression of IL-6 in colon (IL-6; 25 nmol/kg i.p. daily d1-6 (M)): No significant differences
Expression of IL-6 in colon (IL-6; [9]): No significant differences
Expression of TNF-α in colon (TNF-α; [8]): significantly (p < 0.05) decreased
Expression of TNF-α in colon (TNF-α; 25 nmol/kg i.p. daily d1-6 (M)): significantly (p < 0.05) decreased
Expression of TNF-α in colon (TNF-α; [9]): significantly (p < 0.05) decreased
Expression of IL-10 in colon (IL-10; [8]): significantly (p < 0.05) decreased
Expression of IL-10 in colon (IL-10; 25 nmol/kg i.p. daily d1-6 (M)): significantly (p < 0.05) decreased
Colonic damage score (CDS) of colon [3, 8]: significantly (p < 0.05) decreased
Colon morphological structures ([3]; 25 nmol/kg i.p. daily d1-6 (M), Fig. 1d): almost normal with no damage
Colonic damage score (CDS) of colon ([3]; 25 nmol/kg i.p. daily d1-6 (M)): significantly (p < 0.05) decreased
Colon morphological structures ([3]; 100 nmol/kg i.p. daily d1-6 (H), Fig. 1e): almost normal with no damage
Colonic damage score (CDS) of colon [3, 9]: significantly (p < 0.05) decreased
colonic damage score: extent [3, 8]: 0.00 and 1.00
colonic damage score: inflammation [3, 8]: 1.00 and 2.00
colonic damage score: extent ([3]; 25 nmol/kg i.p. daily d1-6 (M)): 0.00 and 1.00
colonic damage score: inflammation ([3]; 25 nmol/kg i.p. daily d1-6 (M)): 2.00 and 1.00
colonic damage score: extent [3, 9]: 0.00
colonic damage score: inflammation [3, 9]: 1.00 and 2.00
colonic damage score: percent involvement [3, 8]: 0.00 and 1.00
colonic damage score: percent involvement ([3]; 25 nmol/kg i.p. daily d1-6 (M)): 0.00 and 1.00
colonic damage score: percent involvement [3, 9]: 0.00 and 1.00
colonic damage score: crypt demage [3, 8]: 0.00 and 1.00
colonic damage score: crypt demage ([3]; 25 nmol/kg i.p. daily d1-6 (M)): 0.00 and 3.00 and 1.00
colonic damage score: crypt demage [3, 9]: 0.00 and 3.00
half-life (t1/2) longer than that of pGLP-2 [4]: 16 fold
Body weight change [5, 10]: 21.45 ± 2.00^b %
Colonic length [5, 10]: 14.74 ± 1.90^a cm
Intestinal length [5, 10]: 94.50 ± 7.07 cm
Body weight change [5, 11]: 21.46 ± 4.65^b %
Colonic length [5, 11]: 14.48 cm
Intestinal length [5, 11]: 99.10 ± 8.03 cm
Body weight change [5, 12]: 20.63 ± 3.4^b %
Colonic length [5, 12]: 13.42 cm
Intestinal length [5, 12]: 99.56 ± 6.82 cm
Colonic weight [5, 13]: 3.68 g and 1.94 g and 1.55 g and 1.6 g and 3.59 g and 2.4 g
Intestinal length [5, 13]: 99.0 cm and 95.0 cm and 102.0 cm and 93.0 cm
Intestinal weight [5, 13]: 8.25 g and 6.51 g and 7.68 g and 5.4 g and 8.63 g and 9.24 g
final weight [5, 13]: 240 g and 217 g and 219 g and 157 g and 223 g
Colonic weight [5, 14]: 3.22 g and 2.19 g and 2.7 g and 2.5 g and 3.3 g and 3 g
Intestinal weight [5, 14]: 6 g and 6.93 g and 9 g and 8.4 g and 8.73 g and 7.5 g
final weight [5, 14]: 220 g and 180 g and 246 g and 182 g and 230 g and 212 g
Colonic length [5, 15]: 14.7 cm and 12.7 cm and 13.7 cm and 13.0 cm
Colonic weight [5, 15]: 2.55 g and 2.37 g and 1.85 g and 2.2 g and 2.94 g
Intestinal weight [5, 15]: 10 g and 7.62 g and 7.22 g and 8 g and 7.87 g and 9.26 g
final weight [5, 15]: 221 g and 218 g and 214 g and 233 g and 219 g and 242 g
half-life [1]: 3.37 h
t1/2 [1]: 3.38 h

porcine glucagon-like peptide-2 (HADGSFSDEMNTVLDNLATRDFINWLLHTKITDSL; Glucagon-like peptide 2; UniProt P01274 146-180, looked up) [pGLP-2]
half-life of intact pGLP-2 [6]: 8.4 min

teduglutide
t1/2 [7]: 2.99 h

— article PMC5336612, “Therapeutic effects of different doses of polyethylene glycosylated porcine glucagon-like peptide-2 on ulcerative colitis in male rats” (BMC Gastroenterology, 2017)
